Test results taken from patent publication US7879792B2, “Synthetic peptide inhibitors of thrombin and thrombin activation of protease activated receptors 1 and 4” (The Regents of the University of Michigan, priority 2005, dated 2011).
Where two headings read alike, the source gives them in different places. Blank lines part the entries; values can stand above or below the compound they belong to. Where a SMILES comes first, the peptide text is derived from it.

Legend:
[1] = stability testing in intestinal perfusate; assay type: in vitro ADME; conditions: rat, 37° C.; for half-life: intestinal perfusate
Procedure: (§1) Stability testing of the various compounds was performed in buffer, intestinal perfusate, and an intestinal homogenate preparation to assess the potential oral availability of these compounds. Initial studies prepared the tissue for stability studies. The buffer used in stability testing is 10 mM MES (pH 6.5) containing 135 mM NaCl, and 5 mM KCl. To collect intestinal perfusate from rats, male Sprague Dawley rats, 8 to 10 weeks old, weighing 250 to 350 g were fasted 15 to 18 hours with water given ad libitum. Anesthesia was administered by intramuscular injection of pentobarbital/ketamine (40 mg/kg and 80 mg/kg, respectively). The rats were placed on a warming pad under a surgical lamp to maintain body temperature and jejunal intestinal segments were exposed through a midline, abdominal incision. Approximately 20 cm segment of the jejunum (2 to 4 cm distal to the ligament of Treitz) was cannulated and the intestinal segments were perfused with 10 mM MES (pH 6.5) containing 135 mM NaCl, and 5 mM KCl at a flow-rate of 0.5 ml/min at 37° C. using a constant infusion pump (Harvard Apparatus, South Natick, Mass.). The collected perfusate was stored at −80° C. until use for ex vivo stability studies. After collection, the perfused intestinal segments were flushed with ice-cold 0.15 M KCl solution and the animal was euthanized and the jejunal intestinal segment detached. The inner intestinal tissue layers are scraped out and homogenized in MES buffer (pH 6.5) in a ratio of 1 part of intestinal tissue to 5 parts buffer. Total protein content of the perfusate and the homogenate were determined using a Biorad protein assay kit. The intestinal homogenate samples were used immediately or rapidly frozen at −80° C. until stability analysis.
(§2) The actual stability testing protocol is as follows: A 0.1 ml aliquot of the synthetic peptide solution (1 mg/ml) was added to 0.9 ml of MES buffer, pH 6.5, intestinal perfusate, or intestinal homogenate at 37° C. Samples were mixed by vortexing and 100 microliter aliquots were removed over a 60 to 90 minute period for analysis of breakdown products. The 100 microliter sample aliquots were diluted 10 fold with water and subjected to solid phase extraction using a Waters Oasis HLB column. Briefly, the columns were preconditioned by passing 1 ml of MeOH and 1 ml of water over the column, and 1 ml of sample was added to the column. The column was washed with 5% methanol:95% water solution to remove proteins and salts, then eluted with 1 ml of 100% methanol. The methanol was removed by vacuum, and the sample was reconstituted in mobile phase for LC/MS/MS analysis.
(§3) LC/MS/MS analysis was performed on a HP1100 HPLC (Hewlett Packard) interfaced with a Quattro II MS/MS detector (Waters/Micromass). For the HPLC separation, a 10 μL aliquot of sample in a mobile phase consisting of an equal volume mixture of acetonitrile/water containing 0.5% formic acid was injected onto a 150 mm×2.2 mm, 5 μm C8 column (Higgins Analytical Inc) and developed at a flow rate of 0.2 ml/min for 5 minutes. The MS detector was used in single ion recording mode at a cone voltage of 50 Volts.

[2] = rat intestinal in situ perfusion permeability; assay type: in vivo; conditions: rat
Procedure: To determine the intestinal permeability of the various peptide analogs, male albino Sprague-Dawley rats, 9-10 weeks old and weighing 250-350 g were fasted for 18 hours with free access to water. The rats were anesthetized with an intramuscular injection of ketamine/xylazine/butorphanol (87 mg/kg, 6 mg/kg, and 0.2 mg/kg body weight, respectively). The abdomen was opened by a 4-5 cm midline incision and a 10 cm jejunal segment was cannulated on two ends and connected to a syringe pump that pumps the perfusing solution through the cannulated intestine at a constant rate and at a temperature of 37° C. The isolated segment was rinsed with 10 mM MES (pH 6.5) at a flow-rate of 0.5 ml/min in order to clean out any residual debris. Jejunal perfusion was subsequently performed with the same buffer containing 135 mM NaCl, 5 mM KCl and 0.01% PEG 4000 at a flow rate of 0.2 ml/min containing test compound, internal permeability reference standards (e.g., metoprolol) and ^14C-PEG 4000 as a non-absorbable marker for measuring water flux. After steady-state is reached within the perfused intestinal segment, typically 30 minutes after start of perfusion, samples were taken at 10 minute intervals for 1 hour. ^14C (PEG-4000) levels are assayed by scintillation counting and test compounds and internal permeability standard analysis by LC/MS/MS. Samples are frozen and stored at −80° C. until analysis.
The effective permeability (Peff) determined from the in situ perfusion is calculated from equation 1
[formula] where Q is the perfusion buffer flow rate, C′out is the outlet concentration of the compound that has been adjusted for water transport (equation 2) after passing through the intestinal segment, C′in is the inlet or starting concentration of the compound, R is the radius of the intestinal segment (set to 0.2 cm) and L is the length of the intestinal segment. To correct for water transport, a non-absorbed radioactive tracer, ^14C PEG-4000, is included in the perfusion buffer. The Cout/Cin ratio is corrected for water transport according to equation 2:
[formula] where Aout-A0 is equal to the radioactivity counts in the outlet sample minus background (dpm) and Ain-A0 is equal to the radioactivity counts in the inlet sample minus background (dpm).
In certain instances, in addition to perfusing the intestinal segment as described, plasma is drawn through a portal vein cannula to determine the amount of material entering the portal system during the perfusion. This additional experimental step can aid in determining the true intestinal permeability of unstable compounds. After steady state conditions are reached as described above, 0.5 ml aliquots of plasma are withdrawn from the portal vein at regular intervals throughout the experimental time frame. The plasma samples are deproteinated with acetonitrile and the sample is subjected to SPE and LC/MS analysis as described above. From the plasma concentration of compound, the mesenteric permeability can be determined by substitution into equation 3: Flux=A*Pe-mes*Ci 3) where Flux is equal to the portal blood flow (estimated at 1 ml/min in the rat)×the steady state mesenteric blood concentration of the peptide analogs, A is the absorptive area of the intestine (estimated at 12.56 cm^2 in the rat intestine), Pe-mes is the mesenteric Permeability (cm/sec), and Ci is the starting concentration of drug in the perfusate (ug/ml).

[3] = stability testing in intestinal homogenate; assay type: in vitro ADME; conditions: rat
Procedure: as §1, §2, §3

[4] = read-out: t1/2 (min) Intestinal Perfusate

half-life at 0.1 mg/ml ([1]; male, Sprague Dawley, intestinal (jejunal) perfusate, pH 6.5, rat, read-out: t1/2 (min) Intestinal Perfusate): 91.8 min
SMILES: N=C(N)NCCC[C@H](N)C(=O)N1CCC[C@H]1C(=O)N1CCC[C@H]1C(=O)O [RPP, Arg-Pro-Pro, reference compound] (H-Arg-Pro-Pro-OH; C-terminus assumed)

half-life [1, 4]: 205 min
SMILES: N=C(N)NCCC[C@@H](N)C(=O)N1[C@H](C(=O)N2C[C@H](O)C[C@H]2C(=O)NCC(=O)N[C@H](C(N)=O)C2Cc3ccccc3C2)C[C@@H]2CCCC[C@@H]21 [rOicHypGIdg] (HELM PEPTIDE1{[dR].[O=C([C@@H]1C[C@@H]2CCCC[C@@H]2N1[*:1])[*:2]].[Hyp].G.[O=C([C@@H](N[*:1])C1Cc2ccccc2C1)[*:2]].[am]}$$$$V2.0)

half-life [1, 4]: 56.1 min
SMILES: N=C(N)NCCC[C@@H](N)C(=O)N1[C@H](C(=O)N2CCC[C@H]2C(=O)NCC(=O)N[C@H](C(N)=O)C2Cc3ccccc3C2)C[C@@H]2CCCC[C@@H]21 [rOicPGIdg] (HELM PEPTIDE1{[dR].[O=C([C@@H]1C[C@@H]2CCCC[C@@H]2N1[*:1])[*:2]].P.G.[O=C([C@@H](N[*:1])C1Cc2ccccc2C1)[*:2]].[am]}$$$$V2.0)

Papp ([2]; from portal vein plasma during perfusion, read-out: Permeability (mesenteric)): 1.63 ×10⁻⁶ cm/s | Papp ([2]; rat jejunal in situ perfusion, read-out: Permeability (in situ)): 7.6 ×10⁻⁶ cm/s | half-life ([3]; intestinal homogenate, 37° C., read-out: t1/2 (min) Intestinal Homogenate): 935 min | stability in intestinal homogenate (FIG. 12) [3]: most stable | t1/2 (min) Intestinal Perfusate [1]: stable
SMILES: N=C(N)NCCC[C@@H](N)C(=O)N1[C@H](C(=O)N2CCC[C@H]2C(=O)O)C[C@@H]2CCCC[C@@H]21 [rOicP] (HELM PEPTIDE1{[dR].[O=C([C@@H]1C[C@@H]2CCCC[C@@H]2N1[*:1])[*:2]].P}$$$$V2.0)
